Tests used:
Pyricularia oryzae = type: in vivo; conditions: 200 ppm spray on rice (Koshihikari, 3 leaf stage), inoculated next day; lesion numbers on third leaves after 7 days in green house, graded by Table 5
[1] = tested on: Colletotrichum lagenarium; conditions: 200 ppm spray on cucumber (3 leaf stage), inoculated next day; lesion numbers on first and second leaves after 7 days in green house, graded by Table 5

| SMILES | Evaluation (effect for rice blast) (Pyricularia oryzae) | Evaluation (effect for cucumber anthracnose) [1] |
| --- | --- | --- |
| Cc1cc(CNC(=O)NC2CCCCC2)on1 [II-108, 3-(3-methyl-5-isoxazolyl)methyl-1-cyclohexylurea] | 1 (21˜41) | 2 (11˜20) |
| CNC(=O)c1cc(CNC(=O)NC2CCCCC2)on1 [II-110, 3-(3-methylaminocarbonyl-5-isoxazolyl)methyl-1-cyclohexylurea] | 1 (21˜41) | 1 (21˜41) |
| O=C(NCc1cc(COC2=CC(=O)C3CCC2C3)no1)NC1CCCCC1 (centres unmarked) [II-112, 3-[3-(bicyclo[3.2.1]oct-2-en-4-on-2-yl)oxymethyl-5-isoxazolyl]methyl-1-cyclohexylurea] | 3 (6˜10) | 3 (6˜10) |
| N#CCc1cc(CNC(=O)NC2CCCCC2)on1 [II-113, 3-(3-cyanomethyl-5-isoxazolyl)methyl-1-cyclohexylurea] | 2 (11˜20) | 1 (21˜41) |
| CSCc1cc(CNC(=O)NC2CCCCC2)on1 [II-114, 3-(3-methylthiomethyl-5-isoxazolyl)methyl-1-cyclohexylurea] | 3 (6˜10) | 3 (6˜10) |
| CC(C)c1cc(CNC(=O)c2ccccc2)on1 [III-4, N-[(3-isopropyl-5-isoxazolyl)methyl]benzamide] | 3 (6˜10) | 4 (1˜5) |
| Cc1ccc(C(=O)NCc2cc(C(C)C)no2)cc1 [III-5, N-[(3-isopropyl-5-isoxazolyl)methyl]-4-methyl benzamide] | 4 (1˜5) | 4 (1˜5) |
| O=C(NCc1cc(C2CCCCC2)no1)c1ccccc1 [III-6, N-[(3-cyclohexyl-5-isoxazolyl)methyl]benzamide] | 5 (0) | 4 (1˜5) |
| Cc1ccc(-c2cc(CNC(=O)c3ccccc3)on2)cc1 [III-10, N-{[3-(4-tolyl)-5-isoxazolyl]methyl}benzamide] | 5 (0) | 5 (0) |
| Cc1ccc(C(=O)NCc2cc(-c3ccc(C)cc3)no2)cc1 [III-11, N-{[3-(4-tolyl)-5-isoxazolyl]methyl}-4-methylbenzamide] | 5 (0) | 3 (6˜10) |
| COc1ccc(C(=O)NCc2cc(-c3ccc(C)cc3)no2)cc1 [III-12, N-{[3-(4-tolyl)-5-isoxazolyl]methyl}-4-methoxybenzamide] | 5 (0) | 5 (0) |
| COc1ccc(C(=O)NCc2cc(-c3ccc(C(C)(C)C)cc3)no2)cc1 [III-14, N-{[3-(4-t-butylphenyl)-5-isoxazolyl]methyl}-4-methoxybenzamide] | 5 (0) | 3 (6˜10) |
| COc1ccc(-c2cc(CNC(=O)c3ccccc3)on2)cc1 [III-17, N-{[3-(4-methoxyphenyl)-5-isoxazolyl]methyl}benzamide] | 5 (0) | 5 (0) |
| COc1ccc(C(=O)NCc2cc(-c3ccc(OC)cc3)no2)cc1 [III-18, N-{[3-(4-methoxyphenyl)-5-isoxazolyl]methyl}-4-methoxy benzamide] | 5 (0) | 5 (0) |
| COc1ccc(-c2cc(CNC(=O)c3ccc(C)cc3)on2)cc1 [III-19, N-{[3-(4-methoxyphenyl)-5-isoxazolyl]methyl}-4-methylbenzamide] | 5 (0) | 5 (0) |
| Cc1ccc(C(=O)NCc2cc(-c3ccc(S(C)(=O)=O)cc3)no2)cc1 [III-26, N-{[3-(4-mesylphenyl)-5-isoxazolyl]methyl}-4-methylbenzamide] | 5 (0) | 5 (0) |
| Cc1ccc(C(=O)NCc2cc(-c3ccc([S+](C)[O-])cc3)no2)cc1 (centres unmarked) [III-27, N-{[3-(4-methanesulfinylphenyl)-5-isoxazolyl]methyl}-4-methylbenzamide] | 5 (0) | 5 (0) |
| CSc1ccc(-c2cc(CNC(=O)c3ccc(C)cc3)on2)cc1 [III-28, N-{[3-(4-methylthiophenyl)-5-isoxazolyl]methyl}-4-methylbenzamide] | 5 (0) | 4 (1˜5) |
| Cc1ccc(C(=O)NCc2cc(-c3ccc(F)cc3)no2)cc1 [III-31, N-{[3-(4-fluorophenyl)-5-isoxazolyl]methyl}-4-methylbenzamide] | 5 (0) | 5 (0) |
| O=C(NCc1cc(-c2ccc(Cl)cc2)no1)c1ccccc1 [III-34, N-{[3-(4-chlorophenyl)-5-isoxazolyl]methyl}benzamide] | 5 (0) | 5 (0) |

| SMILES | Evaluation (effect for rice blast) (Pyricularia oryzae) | Evaluation (effect for cucumber anthracnose) [1] |
| --- | --- | --- |
| O=C(NCc1cc(-c2ccc(Br)cc2)no1)c1ccccc1 [III-37, N-{[3-(4-bromophenyl)-5-isoxazolyl]methyl}benzamide] | 5 (0) | 3 (6˜10) |
| O=C(NCc1cc(-c2ccc(C(F)(F)F)cc2)no1)c1ccccc1 [III-40, N-{[3-(4-trifluoromethylphenyl)-5-isoxazolyl]methyl}benzamide] | 5 (0) | 5 (0) |
| Cc1ccc(C(=O)NCc2cc(-c3ccc(C#N)cc3)no2)cc1 [III-43, N-{[3-(4-cyanophenyl)-5-isoxazolyl]methyl}-4-methylbenzamide] | 5 (0) | 4 (1˜5) |
| COc1ccc(C(=O)NCc2cc(-c3ccc(OC(F)(F)F)cc3)no2)cc1 [III-49, N-{[3-(4-trifluoromethoxyphenyl)-5-isoxazolyl]methyl}-4-methoxybenzamide] | 5 (0) | 5 (0) |
| Cc1ccc(C(=O)NCc2cc(-c3ccc(C(=O)O)cc3)no2)cc1 [III-51, N-{[3-(4-carboxyphenyl)-5-isoxazolyl]methyl}-4-methylbenzamide] | 5 (0) | 4 (1˜5) |
| COC(=O)c1ccc(-c2cc(CNC(=O)c3ccc(C)cc3)on2)cc1 [III-52, N-{[3-(4-methoxycarbonylphenyl)-5-isoxazolyl]methyl}-4-methylbenzamide] | 5 (0) | 5 (0) |
| Cc1ccc(C(=O)NCc2cc(-c3ccc(N(C)C)cc3)no2)cc1 [III-61, N-{[3-(4-dimethylaminophenyl)-5-isoxazolyl]methyl}-4-methylbenzamide] | 5 (0) | 4 (1˜5) |
| Cc1ccc(C(=O)NCc2cc(-c3ccc(C)cc3C)no2)cc1 [III-65, N-{[3-(2,4-dimethylphenyl)-5-isoxazolyl]methyl}-4-methylbenzamide] | 5 (0) | 5 (0) |
| COc1ccc(-c2cc(CNC(=O)c3ccc(C)cc3)on2)c(OC)c1 [III-66, N-{[3-(2,4-dimethoxyphenyl)-5-isoxazolyl]methyl}-4-methylbenzamide] | 5 (0) | 5 (0) |
| COc1ccc(-c2cc(CNC(=O)c3ccccc3)on2)cc1OC [III-67, N-{[3-(3,4-dimethoxyphenyl)-5-isoxazolyl]methyl}benzamide] | 5 (0) | 5 (0) |
| COc1ccc(-c2cc(CNC(=O)c3ccc(C)cc3)on2)cc1OC [III-68, N-{[3-(3,4-dimethoxyphenyl)-5-isoxazolyl]methyl}-4-methylbenzamide] | 5 (0) | 5 (0) |
| Cc1ccc(C(=O)NCc2cc(-c3ccc(C)c(F)c3)no2)cc1 [III-73, N-{[3-(3-fluoro-4-methylphenyl)-5-isoxazolyl]methyl}-4-methylbenzamide] | 5 (0) | 4 (1˜5) |
| COc1ccc(-c2cc(CNC(=O)c3ccc(C)cc3)on2)c(F)c1 [III-74, N-{[3-(2-fluoro-4-methoxyphenyl)-5-isoxazolyl]methyl}-4-methylbenzamide] | 5 (0) | 5 (0) |
| Cc1ccc(C(=O)NCc2cc(-c3ccccc3)no2)cc1 [III-107, N-[(3-phenyl-5-isoxazolyl)methyl]-4-methylbenzamide] | 5 (0) | 5 (0) |
| CC(C)(C)c1ccc(C(=O)NCc2cc(-c3ccccc3)no2)cc1 [III-108, N-[(3-phenyl-5-isoxazolyl)methyl]-4-t-butylbenzamide] | 2 (11˜20) | 3 (6˜10) |
| COc1ccccc1C(=O)NCc1cc(-c2ccccc2)no1 [III-109, N-[(3-phenyl-5-isoxazolyl)methyl]-2-methoxybenzamide] | 4 (1˜5) | 5 (0) |
| COc1ccc(C(=O)NCc2cc(-c3ccccc3)no2)cc1 [III-111, N-[(3-phenyl-5-isoxazolyl)methyl]-4-methoxy benzamide] | 5 (0) | 5 (0) |
| O=C(NCc1cc(-c2ccccc2)no1)c1ccc(F)cc1 [III-121, N-[(3-phenyl-5-isoxazolyl)methyl]-4-fluorobenzamide] | 5 (0) | 5 (0) |
| O=C(NCc1cc(-c2ccccc2)no1)c1ccccc1Cl [III-122, N-[(3-phenyl-5-isoxazolyl)methyl]-2-chlorobenzamide] | 4 (1˜5) | 4 (1˜5) |
| O=C(NCc1cc(-c2ccccc2)no1)c1cccc(Cl)c1 [III-123, N-[(3-phenyl-5-isoxazolyl)methyl]-3-chlorobenzamide] | 5 (0) | 5 (0) |
